The target in one assay is T1, Androgen receptor (Rattus norvegicus) (UniProt P15207).
T1 sequence (whole entry): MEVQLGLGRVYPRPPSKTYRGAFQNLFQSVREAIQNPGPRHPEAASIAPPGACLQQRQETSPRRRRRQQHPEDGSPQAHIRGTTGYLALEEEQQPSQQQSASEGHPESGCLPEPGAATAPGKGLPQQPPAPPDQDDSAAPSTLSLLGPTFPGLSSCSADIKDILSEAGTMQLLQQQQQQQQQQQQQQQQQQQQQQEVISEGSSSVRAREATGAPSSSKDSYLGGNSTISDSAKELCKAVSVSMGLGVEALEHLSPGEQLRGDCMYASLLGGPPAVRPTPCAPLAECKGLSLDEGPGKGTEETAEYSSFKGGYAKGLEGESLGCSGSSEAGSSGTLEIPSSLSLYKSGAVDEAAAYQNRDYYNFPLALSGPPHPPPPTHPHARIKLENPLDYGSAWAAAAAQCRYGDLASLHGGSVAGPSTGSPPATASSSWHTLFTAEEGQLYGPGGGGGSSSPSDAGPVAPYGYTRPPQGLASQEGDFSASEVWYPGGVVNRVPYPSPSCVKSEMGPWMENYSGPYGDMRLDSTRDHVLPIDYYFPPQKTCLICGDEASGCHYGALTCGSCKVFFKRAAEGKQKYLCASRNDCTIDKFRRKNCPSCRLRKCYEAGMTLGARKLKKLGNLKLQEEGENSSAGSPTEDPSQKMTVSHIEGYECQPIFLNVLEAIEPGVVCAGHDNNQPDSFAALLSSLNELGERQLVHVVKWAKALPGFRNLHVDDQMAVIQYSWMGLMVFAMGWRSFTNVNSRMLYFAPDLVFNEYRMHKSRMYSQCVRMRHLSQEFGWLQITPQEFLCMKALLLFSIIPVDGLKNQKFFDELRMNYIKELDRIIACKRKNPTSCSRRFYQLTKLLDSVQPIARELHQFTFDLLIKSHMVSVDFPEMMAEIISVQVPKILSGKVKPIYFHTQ
Description: Effective dose required to inhibit testosterone propionate-stimulated prostate weight gain by 50% […]. The class given is tissue-based. As to conditions: Prostate gland.
Compound `C[C@]12CCC3C(CC[C@H]4Cc5oc(C(=O)O)cc5C[C@]34C)C1CC[C@@H]2O` (stereo partly specified) came in with a 50% effective dose (ED50) of over 100 mg/kg.
The same measure, in the same setting: under `C#C[C@]1(O)CCC2C3CC[C@H]4Cc5oc(C(C)=O)cc5C[C@@H]4C3CC[C@@]21C` (stereo partly specified) stands 100 mg/kg.
Same read-out and setting: under `CCC(=O)c1cc2c(o1)C[C@@H]1CCC3C4CC[C@H](O)[C@@]4(C)CCC3[C@@]1(C)C2` (stereo partly specified) stands 33 mg/kg; under `C[C@]12CCC3C(CC[C@H]4Cc5occc5C[C@]34C)C1CC[C@@H]2O` (stereo partly specified), over 100 mg/kg.
In turn, `C#C[C@]1(O)CCC2C3CC[C@H]4Cc5oc(C(N)=O)cc5C[C@]4(C)C3CC[C@@]21C` (stereo partly specified) registered an ED50 of 56 mg/kg.
`COC(=O)c1cc2c(o1)C[C@@H]1CCC3C4CC[C@H](O)[C@@]4(C)CCC3[C@@]1(C)C2` (stereo partly specified) had a median effective dose (ED50) of over 100 mg/kg.
Compound `CC(=O)c1cc2cc3c(cc2o1)CC[C@@H]1[C@@H]3CC[C@]2(C)[C@@H](O)CC[C@@H]12` came in with an ED50 of 100 mg/kg.
Still for that read-out and setting: the result for `C#C[C@]1(O)CCC2C3CC[C@H]4Cc5oc(C(=O)OC)cc5C[C@]4(C)C3CC[C@@]21C` (stereo partly specified) reads over 50 mg/kg.
In turn, `C[C@]12CCC3C(CC[C@H]4Cc5oc(C=O)cc5C[C@H]34)C1CC[C@@H]2O` (stereo partly specified) had an ED50 of over 100 mg/kg.
For `CC1(C(=O)c2cc3c(o2)C[C@@H]2CCC4C5CC[C@H](O)[C@@]5(C)CCC4[C@@]2(C)C3)CC1` (stereo partly specified), the ED50 is over 100 mg/kg.
The same measure, in the same setting: under `C#C[C@]1(O)CCC2C3CC[C@H]4Cc5oc(C(=O)CC)cc5C[C@]4(C)C3CC[C@@]21C` (stereo partly specified) stands 30 mg/kg.
The same measure, in the same setting: under `C[C@]12CCC3C(CC[C@H]4Cc5oc(C(=O)C6CC6)cc5C[C@]34C)C1CC[C@@H]2O` (stereo partly specified) stands 100 mg/kg.
The same measure, in the same setting: under `C#C[C@]1(O)CCC2C3CC[C@H]4Cc5oc(C(C)=O)cc5C[C@]4(C)C3CC[C@@]21C` (stereo partly specified) stands over 100 mg/kg; under `C[C@]12CCC3C(CC[C@H]4Cc5oc(C(=O)c6ccccc6)cc5C[C@]34C)C1CC[C@@H]2O` (stereo partly specified), over 100 mg/kg.
In turn, `CCCC(=O)c1cc2c(o1)C[C@@H]1CCC3C4CC[C@H](O)[C@@]4(C)CCC3[C@@]1(C)C2` (stereo partly specified) gave an ED50 of over 75 mg/kg.
`C[C@]12CCC3C(CC[C@H]4Cc5oc(C=O)cc5C[C@]34C)C1CC[C@@H]2O` (stereo partly specified) had a 50% effective dose (ED50) of over 100 mg/kg.
The compound `C#C[C@]1(O)CCC2C3CC[C@H]4Cc5oc(C=O)cc5C[C@]4(C)C3CC[C@@]21C` (stereo partly specified) came in with a 50% effective dose (ED50) of 100 mg/kg.
On to `CC(C)(C)C(=O)c1cc2c(o1)C[C@@H]1CCC3C4CC[C@H](O)[C@@]4(C)CCC3[C@@]1(C)C2` (stereo partly specified), for which the ED50 was over 100 mg/kg.
The compound `C#C[C@]1(O)CCC2C3CC[C@H]4Cc5oc(C(=O)O)cc5C[C@]4(C)C3CC[C@@]21C` (stereo partly specified) came in with a median effective dose (ED50) of over 100 mg/kg.

The species named for the next assay is Rattus norvegicus. Put plainly: Effective dose required for the compound to inhibit testosterone propionate-stimulated prostate weight gain by 50% […]. The class given is functional. The settings on record: Prostate gland.
`COc1ccc(C(=O)c2cc3c(o2)C[C@@H]2CCC4C5CC[C@H](O)[C@@]5(C)CCC4[C@@]2(C)C3)cc1` (stereo partly specified) displayed a 50% effective dose (ED50) of over 100 mg/kg.

Another assay addresses T1, Androgen receptor (Rattus norvegicus). As to conditions: Prostate gland; filed as agonist.
For the compound `C=C[C@]1(O)CCC2C3CC[C@H]4Cc5oc(C(C)=O)cc5C[C@]4(C)C3CC[C@@]21C` (stereo partly specified), the ED50 entry is “Agonist”.
With `CC(=O)c1cc2c(o1)C[C@@H]1CCC3C4CC[C@H](O)[C@@]4(C)CCC3[C@@]1(C)C2` (stereo partly specified), the ED50 result was “Agonist”.
On to `C#C[C@]1(O)CCC2C3CC[C@H]4Cc5oc(C(=O)C(Cl)(Cl)Cl)cc5C[C@]4(C)C3CC[C@@]21C` (stereo partly specified), for which the 50% effective dose (ED50) result was “Agonist”.
With `C#C[C@]1(O)CCC2C3CC[C@H]4Cc5oc(C(=O)C(C)C)cc5C[C@]4(C)C3CC[C@@]21C` (stereo partly specified), the 50% effective dose (ED50) result was “Agonist”.
For `C#C[C@]1(O)CCC2C3CC[C@H]4Cc5oc(C(=O)C6CC6)cc5C[C@]4(C)C3CC[C@@]21C` (stereo partly specified), the ED50 entry is “Agonist”.
Consider `CC[C@]1(O)CCC2C3CC[C@H]4Cc5oc(C(C)=O)cc5C[C@]4(C)C3CC[C@@]21C` (stereo partly specified), for which the ED50 entry was “Agonist”.
For `C[C@]12CCC3C(CC[C@H]4Cc5oc(C(=O)C(F)(F)F)cc5C[C@]34C)C1CC[C@@H]2O` (stereo partly specified), the 50% effective dose (ED50) result is “Agonist”.
On to `CC(=O)c1cc2c(o1)C[C@@H]1CCC3C(CC[C@@]4(C)C3CC[C@@H]4O)[C@H]1C2` (stereo partly specified), for which the ED50 result is “Agonist”.
As to `C[C@]12CCC3C(CC[C@H]4Cc5oc(C(=O)C6CCC6)cc5C[C@]34C)C1CC[C@@H]2O` (stereo partly specified), the median effective dose (ED50) result is “Agonist”.
On the same count and under the same terms, under `C#C[C@]1(O)CCC2C3CC[C@H]4Cc5oc(C(=O)C(F)(F)F)cc5C[C@]4(C)C3CC[C@@]21C` (stereo partly specified) stands “Agonist”; under `CC(C)C(=O)c1cc2c(o1)C[C@@H]1CCC3C4CC[C@H](O)[C@@]4(C)CCC3[C@@]1(C)C2` (stereo partly specified), “Agonist”.

A word on the ED50: it is the dose that gives a 50% effect, or the effect in half of the subjects.

These data come from ChEMBL document CHEMBL1127426, “Androgen receptor affinity of 5'-acyl furanosteroids” (1994).
